Experimental data reported in article PMC12409781 (RSC Advances, 2025).

What was measured:
Test in all cases: Cell viability assay
Assay type in all cases: cell-based
MIA PaCa-2 = conditions: Homo sapiens, MIA PaCa-2, 72 h, read-out: IC50 MIA PaCa-2
KPC = conditions: 72 h, read-out: IC50 KPC
Panc-1 = conditions: Homo sapiens, PANC-1, 72 h, read-out: IC50 Panc-1, 72 hours, CCK-8

IC50 (MIA PaCa-2): 7.83 ± 0.28 µM | IC50 (Panc-1): 11.6 ± 0.56 µM
SMILES: Nc1ccn([C@@H]2O[C@H](CO)[C@@H](O)C2(F)F)c(=O)n1 [Gemcitabine]
IC50 (KPC): 5.36 ± 0.25 µM
